Consider 2 compounds from PMC9398180 (Molecular Cancer Therapeutics, 2021).

For data set [1], the target named is mouse LMP7 (Mus musculus, UniProt O09061+P28063). Nature of the data set: Cellular LMP7 activity in mouse P3X63Ag8.653 cells. It counts as cell-based.
Data set [2] concerns the target constitutive proteasome subunit β1 (Homo sapiens, UniProt P28072+Q99436). As to the kind of experiment: Cell-free proteasome subunit peptide cleavage assay, β1. It counts as biochemical.
Data set [3] addresses constitutive proteasome subunit β2 (Homo sapiens, UniProt P49720+Q99436). Nature of the data set: Cell-free proteasome subunit peptide cleavage assay, β2. It counts as biochemical.
Data set [4] has as its target immunoproteasome subunit LMP2 (Homo sapiens, UniProt P28065+P40306). Nature of the data set: Cell-free proteasome subunit peptide cleavage assay, LMP2. The data set is classed as biochemical.
Data set [5] concerns the target immunoproteasome subunit MECL-1 (Homo sapiens, UniProt P40306+P49720). As to the kind of experiment: Cell-free proteasome subunit peptide cleavage assay, MECL-1. It counts as biochemical.
Data set [6] deals with primary human cells. As to the kind of experiment: BioMAP Diversity PLUS Panel for Broad Phenotypic Profiling. The data set is classed as cell-based.

SMILES strings stand for the structures.

In turn, `CC(C)C[C@H](NC(=O)[C@H](Cc1ccccc1)NC(=O)c1cnccn1)B(O)O` [Bortezomib] returned an IC50 in data set [1] of 5.3 nM.
For the compound `CC(C)C[C@H](NC(=O)CNC(=O)c1cc(Cl)ccc1Cl)B(O)O` [Ixazomib], the IC50 in data set [2] is 28 ± 22 nM; in data set [3], above 30000 nM; in data set [4] it was 0.9 ± 0.2 nM; in data set [5] it was 5470 nM. In addition, the “cytotoxicity toward primary human B cells, PBMCs, mononuclear cells, and venular endothelial cells” value in data set [6] (33 nmol/L) was “cytotoxic”. Also, the “proliferation of primary human coronary artery smooth muscle cells, endothelial cells, fibroblasts, and T cells” value in data set [6] (non-cytotoxic concentration of 11 nmol/L) was “reduced proliferation”.
